What all share (experiment): kinome screen (33PanQinase)
Holding throughout (assay type): biochemical

The target in test [1] is T1, HIPK2 (Homo sapiens, UniProt Q9H2X6).
T1 construct: purchased Reaction Biology Europe GmbH (formerly ProQinase)
How it is done: (§1) The Kinome Screening was performed by Reaction Biology Europe GmbH (http://reactionbiology.com; Freiburg i. Br., Germany).

The target in test [2] is T2, NEK4 (Homo sapiens, UniProt P51957).
T2 construct: purchased Reaction Biology Europe GmbH (formerly ProQinase)
The method, then:
as §1

Test [3] concerns the target T3, TAOK3 (Homo sapiens, UniProt Q9H2K8).
T3 construct: purchased Reaction Biology Europe GmbH (formerly ProQinase)
T3 sequence (Q9H2K8 1-898): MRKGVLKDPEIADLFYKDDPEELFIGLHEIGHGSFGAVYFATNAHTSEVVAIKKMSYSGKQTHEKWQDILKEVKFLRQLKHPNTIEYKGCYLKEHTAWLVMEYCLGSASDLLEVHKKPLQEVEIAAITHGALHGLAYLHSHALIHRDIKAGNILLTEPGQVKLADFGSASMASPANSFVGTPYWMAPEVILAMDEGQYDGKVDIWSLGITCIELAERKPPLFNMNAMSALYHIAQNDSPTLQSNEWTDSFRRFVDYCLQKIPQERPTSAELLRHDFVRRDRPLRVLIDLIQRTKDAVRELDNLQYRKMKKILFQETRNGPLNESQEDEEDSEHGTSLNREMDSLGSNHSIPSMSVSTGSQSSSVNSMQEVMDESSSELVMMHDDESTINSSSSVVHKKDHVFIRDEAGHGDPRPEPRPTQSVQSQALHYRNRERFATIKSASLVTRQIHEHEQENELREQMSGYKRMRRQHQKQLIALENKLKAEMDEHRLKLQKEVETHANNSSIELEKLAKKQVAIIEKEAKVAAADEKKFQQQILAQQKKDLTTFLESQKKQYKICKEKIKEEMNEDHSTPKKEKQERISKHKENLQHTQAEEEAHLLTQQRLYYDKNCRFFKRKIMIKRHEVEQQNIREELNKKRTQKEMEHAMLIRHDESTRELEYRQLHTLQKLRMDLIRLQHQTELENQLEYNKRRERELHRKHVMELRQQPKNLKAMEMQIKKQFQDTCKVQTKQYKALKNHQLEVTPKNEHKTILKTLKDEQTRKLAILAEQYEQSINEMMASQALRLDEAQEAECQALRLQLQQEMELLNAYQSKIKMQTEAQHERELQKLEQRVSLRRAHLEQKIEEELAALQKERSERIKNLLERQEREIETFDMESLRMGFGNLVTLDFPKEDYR
The method, then:
as §1

The target of test [4] is T4, MEKK2 (Homo sapiens, UniProt Q9Y2U5).
T4 construct: purchased Reaction Biology Europe GmbH (formerly ProQinase)
T4 sequence (Q9Y2U5 1-619): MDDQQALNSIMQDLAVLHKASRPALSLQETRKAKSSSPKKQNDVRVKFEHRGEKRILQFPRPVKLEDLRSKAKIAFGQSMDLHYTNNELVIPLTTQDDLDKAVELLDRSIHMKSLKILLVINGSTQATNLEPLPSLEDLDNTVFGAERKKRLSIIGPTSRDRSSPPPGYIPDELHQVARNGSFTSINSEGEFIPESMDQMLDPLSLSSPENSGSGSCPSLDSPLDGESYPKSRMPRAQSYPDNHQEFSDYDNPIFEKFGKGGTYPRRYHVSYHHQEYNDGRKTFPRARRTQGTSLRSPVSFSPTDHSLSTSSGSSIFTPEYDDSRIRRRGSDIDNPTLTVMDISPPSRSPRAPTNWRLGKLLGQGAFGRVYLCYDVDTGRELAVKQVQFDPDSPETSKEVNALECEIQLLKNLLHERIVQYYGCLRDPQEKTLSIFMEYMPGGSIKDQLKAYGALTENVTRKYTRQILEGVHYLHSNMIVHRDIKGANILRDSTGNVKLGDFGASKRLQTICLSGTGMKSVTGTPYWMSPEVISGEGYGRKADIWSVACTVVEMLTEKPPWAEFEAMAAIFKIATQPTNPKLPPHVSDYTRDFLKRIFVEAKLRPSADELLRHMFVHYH
How it is done: as §1

Test [5] addresses T5, LCK (Homo sapiens, UniProt P06239).
T5 construct: purchased Reaction Biology Europe GmbH (formerly ProQinase)
The method, then: as §1

The target of test [6] is T6, WNK3 (Homo sapiens, UniProt Q9BYP7).
T6 construct: purchased Reaction Biology Europe GmbH (formerly ProQinase)
How it is done:
as §1

Test [7] concerns the target T7, JAK3 (Homo sapiens, UniProt P52333).
T7 construct: purchased Reaction Biology Europe GmbH (formerly ProQinase)
T7 sequence (P52333 1-1124): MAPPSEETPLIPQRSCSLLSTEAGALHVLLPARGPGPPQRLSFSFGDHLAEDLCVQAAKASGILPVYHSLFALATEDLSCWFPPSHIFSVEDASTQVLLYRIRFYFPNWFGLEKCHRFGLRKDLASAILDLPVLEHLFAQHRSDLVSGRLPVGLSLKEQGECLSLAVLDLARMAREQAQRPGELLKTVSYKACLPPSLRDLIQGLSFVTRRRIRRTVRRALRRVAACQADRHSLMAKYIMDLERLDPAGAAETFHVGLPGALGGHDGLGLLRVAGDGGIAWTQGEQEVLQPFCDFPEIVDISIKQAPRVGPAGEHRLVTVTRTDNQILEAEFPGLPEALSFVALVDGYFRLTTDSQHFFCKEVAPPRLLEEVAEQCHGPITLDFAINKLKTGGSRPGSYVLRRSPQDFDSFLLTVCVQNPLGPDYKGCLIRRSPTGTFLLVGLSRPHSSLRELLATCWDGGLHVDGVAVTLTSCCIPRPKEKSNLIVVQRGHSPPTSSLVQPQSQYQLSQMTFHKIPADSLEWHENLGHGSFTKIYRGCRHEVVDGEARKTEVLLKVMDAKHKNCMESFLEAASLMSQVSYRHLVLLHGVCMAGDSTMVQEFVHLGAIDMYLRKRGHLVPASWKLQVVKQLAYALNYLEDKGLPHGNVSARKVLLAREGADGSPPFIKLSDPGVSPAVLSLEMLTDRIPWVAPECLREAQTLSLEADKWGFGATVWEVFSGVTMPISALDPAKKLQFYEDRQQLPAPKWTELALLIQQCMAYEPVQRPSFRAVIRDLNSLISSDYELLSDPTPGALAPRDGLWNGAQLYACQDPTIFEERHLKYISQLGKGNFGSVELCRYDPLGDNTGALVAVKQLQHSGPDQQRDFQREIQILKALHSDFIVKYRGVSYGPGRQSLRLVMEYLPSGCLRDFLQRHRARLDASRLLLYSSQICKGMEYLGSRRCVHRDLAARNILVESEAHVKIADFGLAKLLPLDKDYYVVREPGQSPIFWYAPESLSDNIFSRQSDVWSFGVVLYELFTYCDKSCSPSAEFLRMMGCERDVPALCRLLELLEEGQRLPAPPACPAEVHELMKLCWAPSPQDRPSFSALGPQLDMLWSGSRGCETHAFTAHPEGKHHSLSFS
The method, then:
as §1

SMILES strings stand for the structures.

T1 sequence (Q9H2X6 whole entry): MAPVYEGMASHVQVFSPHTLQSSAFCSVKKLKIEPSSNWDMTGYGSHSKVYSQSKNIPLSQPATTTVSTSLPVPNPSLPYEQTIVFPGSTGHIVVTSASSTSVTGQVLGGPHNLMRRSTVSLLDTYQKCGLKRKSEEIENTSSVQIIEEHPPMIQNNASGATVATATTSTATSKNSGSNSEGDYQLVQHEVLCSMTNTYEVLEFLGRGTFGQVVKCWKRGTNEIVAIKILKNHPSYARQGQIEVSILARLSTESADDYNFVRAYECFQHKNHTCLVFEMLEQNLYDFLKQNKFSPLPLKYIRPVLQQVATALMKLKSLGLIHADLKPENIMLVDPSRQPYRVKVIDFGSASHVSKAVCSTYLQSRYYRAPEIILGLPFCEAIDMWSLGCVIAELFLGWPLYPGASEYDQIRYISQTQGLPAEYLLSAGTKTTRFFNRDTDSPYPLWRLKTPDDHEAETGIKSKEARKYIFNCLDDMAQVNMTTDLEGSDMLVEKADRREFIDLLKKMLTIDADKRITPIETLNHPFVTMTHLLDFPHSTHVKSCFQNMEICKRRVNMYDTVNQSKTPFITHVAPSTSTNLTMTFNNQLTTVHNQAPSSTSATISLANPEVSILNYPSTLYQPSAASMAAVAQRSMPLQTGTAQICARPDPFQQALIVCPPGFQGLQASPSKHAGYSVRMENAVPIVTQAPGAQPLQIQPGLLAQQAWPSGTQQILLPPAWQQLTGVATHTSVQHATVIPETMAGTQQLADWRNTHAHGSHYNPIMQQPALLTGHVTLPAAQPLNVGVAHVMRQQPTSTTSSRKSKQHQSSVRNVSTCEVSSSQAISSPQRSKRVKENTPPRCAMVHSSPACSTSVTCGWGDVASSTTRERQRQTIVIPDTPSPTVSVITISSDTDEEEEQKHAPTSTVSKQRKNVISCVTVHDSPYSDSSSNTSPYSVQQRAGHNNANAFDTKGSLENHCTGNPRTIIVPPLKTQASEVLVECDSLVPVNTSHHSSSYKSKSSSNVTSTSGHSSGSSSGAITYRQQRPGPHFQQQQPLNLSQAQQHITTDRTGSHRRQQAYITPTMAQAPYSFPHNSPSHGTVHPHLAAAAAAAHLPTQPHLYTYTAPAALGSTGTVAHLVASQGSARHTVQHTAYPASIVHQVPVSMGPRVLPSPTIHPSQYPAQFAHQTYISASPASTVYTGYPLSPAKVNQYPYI
T2 sequence (P51957 whole entry): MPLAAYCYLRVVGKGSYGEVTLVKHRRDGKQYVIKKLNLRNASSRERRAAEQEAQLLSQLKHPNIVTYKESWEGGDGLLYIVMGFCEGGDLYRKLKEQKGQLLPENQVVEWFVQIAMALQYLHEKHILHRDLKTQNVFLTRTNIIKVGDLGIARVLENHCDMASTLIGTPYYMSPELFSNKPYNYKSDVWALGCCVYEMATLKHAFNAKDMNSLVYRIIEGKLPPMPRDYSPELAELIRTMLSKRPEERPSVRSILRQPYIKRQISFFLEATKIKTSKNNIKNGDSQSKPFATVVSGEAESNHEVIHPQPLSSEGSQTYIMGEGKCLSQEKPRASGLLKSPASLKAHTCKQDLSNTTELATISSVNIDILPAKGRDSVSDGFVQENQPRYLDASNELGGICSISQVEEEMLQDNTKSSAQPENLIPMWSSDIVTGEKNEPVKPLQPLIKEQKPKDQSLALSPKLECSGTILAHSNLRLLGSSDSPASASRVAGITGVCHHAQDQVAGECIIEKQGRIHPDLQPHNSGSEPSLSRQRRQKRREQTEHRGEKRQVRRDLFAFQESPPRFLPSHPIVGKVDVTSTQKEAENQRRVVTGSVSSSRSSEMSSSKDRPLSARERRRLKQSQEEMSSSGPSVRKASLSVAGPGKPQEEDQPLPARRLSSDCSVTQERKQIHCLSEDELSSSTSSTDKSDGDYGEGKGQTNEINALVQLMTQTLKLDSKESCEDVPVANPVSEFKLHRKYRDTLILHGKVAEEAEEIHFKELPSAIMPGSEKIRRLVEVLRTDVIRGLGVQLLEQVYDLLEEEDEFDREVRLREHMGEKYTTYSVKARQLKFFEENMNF
T6 sequence (Q9BYP7 whole entry): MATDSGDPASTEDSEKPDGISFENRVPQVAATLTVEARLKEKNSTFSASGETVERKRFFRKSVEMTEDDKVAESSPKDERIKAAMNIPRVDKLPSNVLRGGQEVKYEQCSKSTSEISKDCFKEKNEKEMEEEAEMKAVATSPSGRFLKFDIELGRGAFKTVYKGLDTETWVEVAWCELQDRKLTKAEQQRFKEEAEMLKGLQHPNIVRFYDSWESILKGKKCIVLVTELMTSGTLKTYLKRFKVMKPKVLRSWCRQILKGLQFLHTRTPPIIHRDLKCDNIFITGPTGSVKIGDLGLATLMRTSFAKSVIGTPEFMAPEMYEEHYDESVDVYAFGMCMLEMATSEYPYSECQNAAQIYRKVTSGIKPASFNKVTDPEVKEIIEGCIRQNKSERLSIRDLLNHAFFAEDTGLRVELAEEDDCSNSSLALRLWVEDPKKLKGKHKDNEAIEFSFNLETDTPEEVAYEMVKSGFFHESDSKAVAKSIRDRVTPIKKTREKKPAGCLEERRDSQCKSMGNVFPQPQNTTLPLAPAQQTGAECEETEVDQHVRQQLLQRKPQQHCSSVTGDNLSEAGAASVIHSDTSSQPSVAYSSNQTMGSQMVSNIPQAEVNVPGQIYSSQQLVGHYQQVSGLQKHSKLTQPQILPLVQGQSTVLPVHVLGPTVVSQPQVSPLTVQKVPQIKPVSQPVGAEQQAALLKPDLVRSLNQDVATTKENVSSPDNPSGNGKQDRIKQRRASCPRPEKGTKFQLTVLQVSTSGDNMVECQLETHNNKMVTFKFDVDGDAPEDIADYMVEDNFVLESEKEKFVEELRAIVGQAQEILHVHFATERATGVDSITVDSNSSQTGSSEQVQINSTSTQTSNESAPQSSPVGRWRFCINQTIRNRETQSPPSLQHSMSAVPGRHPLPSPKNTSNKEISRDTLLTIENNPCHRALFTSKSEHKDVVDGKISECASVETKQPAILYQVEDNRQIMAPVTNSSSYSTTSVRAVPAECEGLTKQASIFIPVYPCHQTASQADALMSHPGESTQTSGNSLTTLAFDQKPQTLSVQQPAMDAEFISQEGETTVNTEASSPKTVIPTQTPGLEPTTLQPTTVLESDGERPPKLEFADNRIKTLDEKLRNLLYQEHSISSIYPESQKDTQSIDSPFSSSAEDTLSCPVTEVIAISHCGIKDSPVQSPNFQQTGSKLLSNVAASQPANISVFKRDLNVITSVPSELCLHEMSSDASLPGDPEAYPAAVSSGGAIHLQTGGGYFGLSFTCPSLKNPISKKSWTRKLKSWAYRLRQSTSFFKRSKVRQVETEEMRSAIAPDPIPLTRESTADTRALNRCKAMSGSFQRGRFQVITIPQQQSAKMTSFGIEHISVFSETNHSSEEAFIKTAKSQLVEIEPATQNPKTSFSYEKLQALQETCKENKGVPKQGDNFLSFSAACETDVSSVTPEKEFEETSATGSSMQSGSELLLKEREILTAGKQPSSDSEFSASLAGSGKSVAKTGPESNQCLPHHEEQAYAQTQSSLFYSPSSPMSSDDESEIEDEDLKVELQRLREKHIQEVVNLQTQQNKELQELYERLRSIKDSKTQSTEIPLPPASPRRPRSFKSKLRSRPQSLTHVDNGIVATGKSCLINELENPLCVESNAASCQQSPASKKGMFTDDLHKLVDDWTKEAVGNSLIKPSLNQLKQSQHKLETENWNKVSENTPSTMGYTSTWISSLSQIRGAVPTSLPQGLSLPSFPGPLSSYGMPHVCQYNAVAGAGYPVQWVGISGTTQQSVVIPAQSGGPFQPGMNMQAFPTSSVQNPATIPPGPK
T5 sequence (P06239 whole entry): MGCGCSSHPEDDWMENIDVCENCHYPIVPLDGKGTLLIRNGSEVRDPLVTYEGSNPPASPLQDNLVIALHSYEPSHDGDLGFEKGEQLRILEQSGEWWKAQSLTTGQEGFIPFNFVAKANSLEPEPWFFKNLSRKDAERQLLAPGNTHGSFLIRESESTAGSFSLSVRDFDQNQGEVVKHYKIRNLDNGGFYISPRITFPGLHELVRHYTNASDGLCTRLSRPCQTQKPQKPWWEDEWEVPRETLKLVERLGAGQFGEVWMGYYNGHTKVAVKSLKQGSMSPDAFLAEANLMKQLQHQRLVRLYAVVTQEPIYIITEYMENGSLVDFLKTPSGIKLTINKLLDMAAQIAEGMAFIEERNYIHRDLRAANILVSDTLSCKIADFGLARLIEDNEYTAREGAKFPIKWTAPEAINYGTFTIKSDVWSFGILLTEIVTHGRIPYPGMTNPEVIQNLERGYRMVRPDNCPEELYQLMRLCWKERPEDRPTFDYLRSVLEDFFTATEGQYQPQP

In the case of `c1ccc(CNc2cc(-c3c[nH]c4ncccc34)ccn2)cc1` [meriolin 36], the residual kinase activity in test [1] (0.3 µM) is on record as 22 % of control; in test [1] (3 µM), 3 % of control; in test [2] (0.3 µM), 84 % of control; in test [2] (3 µM), 37 % of control; in test [3] (0.3 µM), 44 % of control; in test [3] (3 µM), 6 % of control. Moreover, the residual kinase activity is listed as 66 % of control in test [4] (0.3 µM); 18 % of control in test [4] (3 µM); 61 % of control in test [5] (0.3 µM); 18 % of control in test [5] (3 µM); 106 % of control in test [6] (0.3 µM); 104 % of control in test [6] (3 µM). The figures for the residual kinase activity in test [7] (0.3 µM) and in test [7] (3 µM) were 5 % of control and -1 % of control, respectively.

In the case of `COc1ccnc2[nH]cc(-c3cc(N)nc(N)c3)c12` [meriolin 16], the residual kinase activity in test [1] (0.03 µM) is recorded as 36 % of control; in test [1] (0.3 µM), 4 % of control; in test [2] (0.03 µM) it was 89 % of control; in test [2] (0.3 µM), 47 % of control; in test [3] (0.03 µM) it was 111 % of control; in test [3] (0.3 µM), 91 % of control. For the same compound, the residual kinase activity is 95 % of control in test [4] (0.03 µM); 91 % of control in test [4] (0.3 µM); 87 % of control in test [5] (0.03 µM); 91 % of control in test [5] (0.3 µM); 85 % of control in test [6] (0.03 µM); 85 % of control in test [6] (0.3 µM). The results for the residual kinase activity in test [7] (0.03 µM) and in test [7] (0.3 µM) were 58 % of control and 15 % of control, respectively.

Values taken from paper PMC11167047 (Cell Death Discovery, 2024).
